Reference: US20160304552A1, “MODIFIED NUCLEIC ACID MOLECULES AND USES THEREOF” (MODERNA THERAPEUTICS, INC., priority 2013, published 2016)

Assays:
[1] = tested on: HeLa cells; test: Transfection in HeLa cells, Luciferase modRNA (luciferase assay, relative light units); assay type: cell-based, human; conditions: Table 22, 83 ng modRNA, Lipofectamine 2000, 18 h to 22 h
Description: (§1) The day before transfection, 20.000 HeLa cells (ATCC no. CCL-2; Manassas, Va.) were harvested by treatment with Trypsin-EDTA solution (LifeTechnologies, Grand Island, N.Y.) and seeded in a total volume of 100 ul EMEM medium (supplemented with 10% FCS and 1× Glutamax) per well in a 96-well cell culture plate (Corning, Manassas, Va.). The cells were grown at 37° C. in 5% CO2 atmosphere overnight. Next day, 83 ng of Luciferase modRNA or 250 ng of human GCSF modRNA, harboring chemical modifications on the bases or the ribose units, were diluted in 10 ul final volume of OPTI-MEM (LifeTechnologies, Grand Island, N.Y.). Lipofectamine 2000 (LifeTechnologies, Grand Island, N.Y.) was used as transfection reagent and 0.2 μl were diluted in 10 ul final volume of OPTI-MEM. After 5 min incubation at room temperature, both solutions were combined and incubated additional 15 min at room temperature. Then the 20 μl were added to the 100 ul cell culture medium containing the HeLa cells. The plates were then incubated as described before.
After 18 h to 22 h incubation, cells expressing luciferase were lysed with 100 μl Passive Lysis Buffer (Promega, Madison, Wis.) according to manufacturer instructions. Aliquots of the lysates were transferred to white opaque polystyrene 96-well plates (Corning, Manassas, Va.) and combined with 100 ul complete luciferase assay solution (Promega, Madison, Wis.). The lysate volumes were adjusted or diluted until no more than 2 mio relative light units per well were detected for the strongest signal producing samples. […] The plate reader was a BioTek Synergy H1 (BioTek, Winooski, Vt.).

[2] = tested on: Rabbit Reticulocyte Lysate; test: In vitro translation screen, human GCSF modRNA (GCSF ELISA); assay type: biochemical; conditions: Table 20; 250 ng modRNA, 45 min, 30° C.
Description: (§2) The in vitro translation assay was done with the Rabbit Reticulocyte Lysate (nuclease-treated) kit (Promega, Madison, Wis.; Cat. #L4960) according to the manufacturer's instructions. The reaction buffer was a mixture of equal amounts of the amino acid stock solutions devoid of Leucine or Methionine provided in the kit.
(§3) The modRNAs of firefly Luciferase, human GCSF and human EPO, harboring chemical modifications on either the bases or the ribose units, were diluted in sterile nuclease-free water to a final concentration of 250 ng in 2.5 ul (Stock 100 ng/μl). The modRNA (250 ng) was added to the mixture of freshly prepared Rabbit Reticulocyte Lysate and reaction buffer.
(§4) Aliquots of the in vitro translation reaction containing human GCSF modRNA or human EPO mRNA were transferred and analyzed with a human GCSF-specific or EPO ELISA kit (both from R&D Systems, Minneapolis, Minn.; Cat. #s SCS50, DEP00 respectively) according to the manufacturer instructions. All samples were diluted until the determined values were within the linear range of the human GCSF or EPO ELISA standard curve.

[3] = tested on: Rabbit Reticulocyte Lysate; test: In vitro translation screen, firefly Luciferase modRNA (luciferase assay, relative light units); assay type: biochemical; conditions: Table 20; 250 ng modRNA, 45 min, 30° C.
Description: as §2, §3
After 45 min incubation, the reaction was stopped by placing the plate on ice. Aliquots of the in vitro translation reaction containing luciferase modRNA were transferred to white opaque polystyrene 96-well plates (Corning, Manassas, Va.; Cat. # CLS3912) and combined with 100 ul complete luciferase assay solution (Promega, Madison, Wis.). The volumes of the in vitro translation reactions were adjusted or diluted until no more than 2 million relative light units per well were detected for the strongest signal producing samples. […] The plate reader was a BioTek Synergy H1 (BioTek, Winooski, Vt.).

[4] = tested on: Rabbit Reticulocyte Lysate; test: In vitro translation screen, human EPO modRNA (EPO ELISA); assay type: biochemical; conditions: Table 20; 250 ng modRNA, 45 min, 30° C.
Description: as §2, §3, §4

[5] = tested on: HeLa cells; test: Transfection in HeLa cells, human GCSF modRNA (GCSF ELISA of supernatant); assay type: cell-based; conditions: Table 22, 250 ng modRNA, 18 h to 22 h
Description: as §1
(§5) After 18 h to 22 h incubation, cell culture supernatants of cells expressing human GCSF or human EPO were collected and centrifuged at 10.000 rcf for 2 min. The cleared supernatants were transferred and analyzed with a human GCSF-specific or EPO ELISA kit (both from R&D Systems, Minneapolis, Minn.; Cat. #s SCS50, DEP00, respectively) according to the manufacturer instructions. All samples were diluted until the determined values were within the linear range of the human GCSF or EPO ELISA standard curve.

[6] = target: T7 RNA polymerase (Escherichia phage T7, UniProt P00573); test: In vitro transcription yields of modified mRNA; assay type: biochemical; conditions: for EPO In Vitro Transcription yield: EPO mRNA made with the modified NTP(s); for GCSF In Vitro Transcription yield: GCSF mRNA made with the modified NTP(s); for Luc In Vitro Transcription yield: Luciferase mRNA made with the modified NTP(s)
T7 RNA polymerase, sequence (P00573 whole entry): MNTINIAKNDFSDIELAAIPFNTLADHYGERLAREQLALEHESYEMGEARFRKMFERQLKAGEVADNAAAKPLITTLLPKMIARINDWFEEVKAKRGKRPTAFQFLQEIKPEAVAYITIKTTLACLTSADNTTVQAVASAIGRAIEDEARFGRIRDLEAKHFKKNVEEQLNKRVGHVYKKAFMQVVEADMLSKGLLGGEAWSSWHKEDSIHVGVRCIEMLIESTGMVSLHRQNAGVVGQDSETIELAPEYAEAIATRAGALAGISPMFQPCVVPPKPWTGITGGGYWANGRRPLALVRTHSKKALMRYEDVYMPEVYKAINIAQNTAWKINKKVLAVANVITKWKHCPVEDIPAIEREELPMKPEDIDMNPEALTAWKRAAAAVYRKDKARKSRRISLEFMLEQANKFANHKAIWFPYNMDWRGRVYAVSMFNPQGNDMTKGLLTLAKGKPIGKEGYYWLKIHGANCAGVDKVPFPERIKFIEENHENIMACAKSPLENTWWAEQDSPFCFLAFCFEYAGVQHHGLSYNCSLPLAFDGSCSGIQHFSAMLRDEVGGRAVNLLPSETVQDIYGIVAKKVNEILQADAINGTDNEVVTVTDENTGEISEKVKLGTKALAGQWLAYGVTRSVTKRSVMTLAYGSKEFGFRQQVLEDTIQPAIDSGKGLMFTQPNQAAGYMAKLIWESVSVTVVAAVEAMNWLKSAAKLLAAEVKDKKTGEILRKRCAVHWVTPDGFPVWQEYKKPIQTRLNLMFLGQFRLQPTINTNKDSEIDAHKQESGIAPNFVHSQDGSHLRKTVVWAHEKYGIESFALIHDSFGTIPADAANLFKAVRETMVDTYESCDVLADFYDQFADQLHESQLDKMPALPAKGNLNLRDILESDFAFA
Description: The in vitro transcription reaction generates mRNA containing modified nucleotides or modified RNA. The input nucleotide triphosphate (NTP) mix is made in-house using natural and unnatural NTPs.
A typical in vitro transcription reaction includes the following:
Incubation at 37° C. for 3 hr-5 hrs.
The crude IVT mix may be stored at 4° C. overnight for cleanup the next day. 1 U of RNase-free DNase is then used to digest the original template. After 15 minutes of incubation at 37° C., the mRNA is purified using Ambion's […]™ Kit (Austin, Tex.) following the manufacturer's instructions. This kit can purify up to 500 μg of RNA. Following the cleanup, the RNA is quantified using the NanoDrop and analyzed by agarose gel electrophoresis to confirm the RNA is the proper size and that no degradation of the RNA has occurred.
Modified mRNAs in TE buffer (1 μl) are used for Nanodrop UV absorbance readings to quantitate the yield of each modified mRNA from an in vitro transcription reaction (UV absorbance traces are not shown).

[7] = tested on: human PBMC; test: PBMC cytokine assay, interferon-alpha production (IFN-alpha multi-subtype ELISA); assay type: cell-based
Description: 50 mL of human blood from three donors was received from Research Blood Components (Brighton, Mass.) in sodium heparin tubes. […] The tubes were centrifuged at 2000 rpm for 30 minutes with low acceleration and braking (Thermo, Waltham, Mass., 75004506). The tubes were removed and the buffy coat PBMC layers were gently transferred to a fresh 50 mL conical and washed with DPBS. The tubes were centrifuged at 1450 rpm for 10 minutes. The supernatant was aspirated and the PBMC pellets were resuspended and washed in 50 mL of DPBS. The tubes were centrifuged at 1450 rpm for 10 minutes. […] The cell suspensions were adjusted to a concentration of 3.0×10^6 cells/mL live cells. […] Within 30 minutes, transfection mixtures were added to each well at a volume of 50 μL per well. […] The transfection mixtures were then transferred to each of the human PBMC plates at 50 μL per well (6 wells per mRNA sample). The plates were then incubated at 37° C. […] In order to harvest the supernatant, plates were centrifuged at 1450 rpm for 5 min in a swinging plate rotor. The supernatant of 6 wells transfected with the same mRNA was carefully harvested and pooled in a single well of a fresh 96-well plate. Supernatants were either frozen or used fresh until ELISA analysis was done. The ability of unmodified and modified mRNA to trigger innate immune recognition as measured by interferon-alpha production.

[8] = tested on: HeLa cells; test: Transfection in HeLa cells, human EPO modRNA (EPO ELISA of supernatant); assay type: cell-based; conditions: Table 22, 18 h to 22 h
Description: as §1, §5

Structure (SMILES)	Luc Expression (RLUs) [1] [RLUs]	GCSF Expression [2] [pg/mL]	Luc Expression (RLUs) [3] [RLUs]	Epo Expression [4] [pg/mL]	GCSF Expression [5] [pg/mL]	EPO In Vitro Transcription yield [6] [mg]	GCSF In Vitro Transcription yield [6] [mg]	Luc In Vitro Transcription yield [6] [mg]	interferon-alpha concentration in PBMC supernatant ([7]; Luc mRNA, 1st value in cell) [pg/mL]	interferon-alpha concentration in PBMC supernatant ([7]; Luc mRNA, 2nd value in cell) [pg/mL]	interferon-alpha concentration in PBMC supernatant ([7]; Luc mRNA, 3rd value in cell) [pg/mL]	interferon-alpha concentration in PBMC supernatant ([7]; hEPO mRNA, 1st value in cell) [pg/mL]	interferon-alpha concentration in PBMC supernatant ([7]; hEPO mRNA, 2nd value in cell) [pg/mL]	interferon-alpha concentration in PBMC supernatant ([7]; hEPO mRNA, 3rd value in cell) [pg/mL]	interferon-alpha concentration in PBMC supernatant ([7]; hGCSF mRNA, 1st value in cell) [pg/mL]	interferon-alpha concentration in PBMC supernatant ([7]; hGCSF mRNA, 2nd value in cell) [pg/mL]	interferon-alpha concentration in PBMC supernatant ([7]; hGCSF mRNA, 3rd value in cell) [pg/mL]	Epo Expression [8] [pg/mL]	also measured
COc1cn([C@@H]2O[C@H](COP(=O)(O)OP(=O)(O)OP(=O)(O)O)C(O)C2O)c(=O)[nH]c1=O (stereo in doubt) [Compound 00901013007, 5-methoxy-UTP]	31580	26440	306600	17530	1399000	0.1727	0.1546	0.3817	390	-70	-170	-210	162.5	150	350	-41.66	40	1116000	
Nc1nc(=O)n([C@@H]2O[C@H](COP(=O)(O)OP(=O)(O)OP(=O)(O)O)C(O)C2O)cc1CO (stereo in doubt) [00901014005 (350), 5-Hydroxymethyl-CTP]	22160	26600	154000	9425	1151000	0.7778	0.6391	0.4073	7130	3680	8990	4960	3100	2412.5	6575	5800	8180	440300	
Nc1nc(=O)n([C@@H]2O[C@H](COP(=O)(O)OP(=O)(O)OP(=O)(O)O)C(O)C2O)cc1Br (stereo in doubt) [03601014008 (379), 5-Bromo-CTP]	125700	13510	194900	8581	1003000	0.3454	0.3685	0.5161	5470	1080	5420	2300	487.5	500	2808.33	2266.67	1650	3263000	
O=c1[nH]cc([C@@H]2O[C@H](COP(O)(=S)OP(=O)(O)OP(=O)(O)O)C(O)C2O)c(=O)[nH]1 (stereo in doubt) [00902015001 (194), PseudoU-alpha-thio-TP]	2015	7763	5221	2669	320000	0.8632	0.5522	0.6479										302800	Luc (3 Donor samples) ([7]; Luc mRNA, 1st value in cell): 20 pg/mL; Luc (3 Donor samples) ([7]; Luc mRNA, 2nd value in cell): 170 pg/mL; Luc (3 Donor samples) ([7]; Luc mRNA, 3rd value in cell): -90 pg/mL; hEPO (3 Donor samples) ([7]; hEPO mRNA, 1st value in cell): -190 pg/mL; hEPO (3 Donor samples) ([7]; hEPO mRNA, 2nd value in cell): 75 pg/mL; hEPO (3 Donor samples) ([7]; hEPO mRNA, 3rd value in cell): 400 pg/mL; hGCSF (3 Donor samples) ([7]; hGCSF mRNA, 1st value in cell): 50 pg/mL; hGCSF (3 Donor samples) ([7]; hGCSF mRNA, 2nd value in cell): 508.33 pg/mL; hGCSF (3 Donor samples) ([7]; hGCSF mRNA, 3rd value in cell): 640 pg/mL
NC/C=C/c1cn([C@@H]2O[C@H](COP(=O)(O)OP(=O)(O)OP(=O)(O)O)C(O)C2O)c(=O)[nH]c1=O (stereo in doubt) [Compound 00901013010, 5-Aminoallyl-UTP]	1946	3706	14870	1863	40710	0.3732	0.4206	0.3513										67440	
